Marks after values point to notes of the source that are not given here.
Columns and labels:
Septoria tritici = assay: Test D: preventive spray on wheat seedlings, wheat leaf blotch, visual disease rating; type: in vivo; conditions: for pest or weed control at 200 ppm / Test D rating (disease control): 200 ppm test suspension, Septoria tritici inoculated the day after spraying
Summary of the method: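 Wheat seedlings sprayed to run-off with 200 ppm suspension (≈800 g/ha; asterisked ratings 40 ppm), then inoculated with S. tritici spores next day. Held 48 h saturated at 24 °C, then 19 days at 20 °C. Visual rating 0–100% disease control versus controls, triplicate mean.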

Alternaria solani = assay: Test B: preventive spray on tomato seedlings, tomato early blight, visual disease rating; type: in vivo
Method: General protocol for preparing test suspensions for Tests A-G: the test compounds were first dissolved in acetone in an amount equal to 3% of the final volume and then suspended at the desired concentration (in ppm) in acetone and purified water (50/50 mix by volume) containing 250 ppm of the surfactant Trem® 014 (polyhydric alcohol esters). The resulting test suspensions were then used in Tests A-G. Each test was conducted in triplicate, and the results were averaged. Spraying a 200 ppm test suspension to the point of run-off on the test plants was the equivalent of a rate of 800 g/ha. Unless otherwise indicated, the rating values indicate a 200 ppm test suspension was used. (An asterisk “*” next to the rating value indicates a 40 ppm test suspension was used.) The test suspension was sprayed to the point of run-off on tomato seedlings. The following day the seedlings were inoculated with a spore suspension of Alternaria solani (the causal agent of tomato early blight) and incubated in a saturated atmosphere at 27° C. for 48 h, and then moved to a growth chamber at 20° C. for 5 days, after which time visual disease ratings were made. Results for Tests A-G are given in Table A. In the Table, a rating of 100 indicates 100% disease control and a rating of 0 indicates no disease control (relative to the controls). A hyphen (-) indicates no test results.

[1] = 200 ppm test suspension, Alternaria solani inoculated the day after spraying

| Compound | pest or weed control at 200 ppm (Septoria tritici; Zymoseptoria tritici, 504 h) | Test B rating (disease control) (Alternaria solani; [1]) | Test D rating (disease control) (Septoria tritici) | pest or weed control at 40 ppm (Septoria tritici; Zymoseptoria tritici, 504 h, 40 ppm test suspension (asterisk), Septoria tritici) | Test B rating (disease control) (Alternaria solani; 40 ppm test suspension (asterisk), Alternaria solani) |
| --- | --- | --- | --- | --- | --- |
| Cc1nn(C)c(C(O)C(C)C)c1-c1ccc(F)cc1Cl (stereo not drawn) [Compound 2, 4-(2-chloro-4-fluorophenyl)-1,3-dimethyl-α-(1-methylethyl)-1H-pyrazole-5-methanol] | 100% | 0% |  |  |  |
| CCCNc1c(-c2ccc(Cl)cc2Cl)c(C)nn1C [Compound 3] |  | 21% | 92% |  |  |
| CCC(C)C(O)c1c(-c2c(F)cccc2F)c(C)nn1C (centres unmarked) [Compound 15] |  | 99% | 100% |  |  |
| CCC(C)C(O)c1c(-c2c(F)cccc2Cl)c(C)nn1C (stereo not drawn) [Compound 19, 4-(2-chloro-6-fluorophenyl)-1,3-dimethyl-α-(1-methylpropyl)-1H-pyrazole-5-methanol] |  |  |  | 89% | 0* % |
| CCCC(O)c1c(-c2c(F)cccc2Cl)c(C)nn1C (centres unmarked) [Compound 21] |  | 56% | 97% |  |  |
| Cc1nn(C)c(C(O)C2=CCCCC2)c1-c1c(F)cccc1F (centres unmarked) [Compound 10] |  | 99% | 92% |  |  |
| CCC(C)C(O)c1c(-c2ccc(F)cc2Cl)c(C)nn1C (stereo not drawn) [Compound 8, 4-(2-chloro-4-fluorophenyl)-1,3-dimethyl-α-(1-methylpropyl)-1H-pyrazole-5-methanol] | 100% | 99% |  |  |  |
| Cc1nn(C)c(C(O)CC(C)C)c1-c1c(F)cccc1Cl (centres unmarked) [Compound 20] |  | 93% | 100% |  |  |
| C=CCC(C)(C)C(O)c1c(-c2c(F)cccc2F)c(C)nn1C (centres unmarked) [Compound 12] |  | 32% | 83% |  |  |
| CCCC(O)c1c(-c2c(F)cccc2F)c(C)nn1C (centres unmarked) [Compound 14] |  | 0% | 62% |  |  |
| CCCCC(CC)C(O)c1c(-c2c(F)cccc2F)c(C)nn1C (centres unmarked) [Compound 13] |  | 0% | 55% |  |  |
| Cc1nn(C)c(NC2CCCCC2)c1-c1ccc(F)cc1F [Compound 6, N-cyclohexyl-4-(2,4-difluorophenyl)-1,3-dimethyl-1H-pyrazol-5-amine] | 100% | 99% |  |  |  |
| Cc1nn(C)c(C(O)C(C)(C)CCC#N)c1-c1c(F)cccc1F (centres unmarked) [Compound 9] |  | 0% | 98% |  |  |
| Cc1nn(C)c(C(O)CC(C)C)c1-c1c(F)cccc1F (centres unmarked) [Compound 11] |  | 81% | 98% |  |  |
| CCCCNc1c(-c2ccc(Cl)cc2Cl)c(C)nn1C [Compound 5, N-butyl-4-(2,4-dichlorophenyl)-1,3-dimethyl-1H-pyrazol-5-amine] | 88% | 0% |  |  |  |
| Cc1nn(C)c(NCC(C)C)c1-c1ccc(Cl)cc1Cl [Compound 4, 4-(2,4-dichlorophenyl)-1,3-dimethyl-N-(2-methylpropyl)-1H-pyrazol-5-amine] | 99% | 94% |  |  |  |

Reference: patent US20140288074A1, “FUNGICIDAL PYRAZOLES” (E I DU PONT DE NEMOURS AND COMPANY, priority 2013, published 2014)
